From patent US7342015B2, “Indole derivatives” (H. Lundbeck A/S, priority 2001, dated 2008)

Key:
cloned 5-HT1A receptors [1] = biological target: T1, cloned 5-HT1A receptors (Homo sapiens, UniProt P08908); assay: 5-HT1A antagonistic activity: antagonism of 5-HT induced inhibition of forskolin induced cAMP accumulation in transfected HeLa cells (HA7); format: cell-based; details: cloned 5-HT1A receptors in transfected HeLa cells (HA7)
T1 construct: expressed in transfected cells; host or cells: HeLa cells (HA7)
T1 sequence (P08908 1-422): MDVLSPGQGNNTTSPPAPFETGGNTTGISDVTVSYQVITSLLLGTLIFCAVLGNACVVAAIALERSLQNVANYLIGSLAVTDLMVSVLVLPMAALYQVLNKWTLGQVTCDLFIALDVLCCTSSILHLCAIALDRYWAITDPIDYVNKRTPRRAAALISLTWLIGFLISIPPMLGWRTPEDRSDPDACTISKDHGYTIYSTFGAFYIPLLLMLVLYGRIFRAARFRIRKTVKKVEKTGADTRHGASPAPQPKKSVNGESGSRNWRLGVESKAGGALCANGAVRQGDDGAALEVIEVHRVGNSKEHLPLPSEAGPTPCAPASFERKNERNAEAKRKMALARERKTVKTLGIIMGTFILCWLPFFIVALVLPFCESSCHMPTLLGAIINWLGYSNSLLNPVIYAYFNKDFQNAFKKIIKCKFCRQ
Experimental: The 5-HT1A antagonistic activity of some of the compounds of the invention has been estimated in vitro at cloned 5-HT1A receptors, stably expressed in transfected HeLa cells (HA7). In this test, 5-HT1A antagonistic activity is estimated by measuring the ability of the compounds to antagonize the 5-HT induced inhibition of forskolin induced cAMP accumulation. The assay was performed as a modification of the method described by Pauwels, P. J. et al. Biochem. Pharmacol. 1993, 45, 375.

[2] = biological target: T2, re-uptake of serotonin (3H-5-HT uptake into whole rat brain synaptosomes) (Rattus norvegicus, UniProt P31652); assay: Inhibition of 3H-5-HT uptake into rat brain synaptosomes; format: biochemical; details: in vitro
T2 construct: whole rat brain synaptosomes; from tissue; host or cells: whole rat brain synaptosomes
T2 sequence (P31652 whole entry): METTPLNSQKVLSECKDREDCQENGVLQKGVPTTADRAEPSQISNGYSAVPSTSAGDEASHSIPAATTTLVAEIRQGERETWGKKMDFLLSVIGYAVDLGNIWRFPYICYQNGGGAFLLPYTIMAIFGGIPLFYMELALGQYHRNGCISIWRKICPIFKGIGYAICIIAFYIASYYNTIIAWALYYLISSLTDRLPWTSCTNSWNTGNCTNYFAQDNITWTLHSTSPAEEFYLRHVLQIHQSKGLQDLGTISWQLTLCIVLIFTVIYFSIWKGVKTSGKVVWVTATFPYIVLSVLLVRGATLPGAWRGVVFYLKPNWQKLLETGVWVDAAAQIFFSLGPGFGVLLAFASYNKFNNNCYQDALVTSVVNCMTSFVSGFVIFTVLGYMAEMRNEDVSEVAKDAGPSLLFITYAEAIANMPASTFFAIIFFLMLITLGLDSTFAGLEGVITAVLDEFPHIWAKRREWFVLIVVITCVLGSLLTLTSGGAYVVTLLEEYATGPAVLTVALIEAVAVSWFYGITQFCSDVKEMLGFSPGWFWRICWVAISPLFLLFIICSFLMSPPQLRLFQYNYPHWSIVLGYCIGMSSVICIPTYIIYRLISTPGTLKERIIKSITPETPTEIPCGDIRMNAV
Experimental: The compounds of the invention have also been tested for their effect on re-uptake of serotonin in the following test:
Inhibition of ^3H-5-HT Uptake Into Rat Brain Synaptosomes.
Using this method, the ability of drugs to inhibit the accumulation of ^3H-5-HT into whole rat brain synaptosomes is determined in vitro. The assay was performed as described by Hyttel, J. Psychopharmacology 1978, 60, 13.

cloned 5-HT1A receptors [3] = biological target: T1, cloned 5-HT1A receptors; assay: Inhibition of 3H-5-CT binding to human 5-HT1A receptors; details: cloned human 5-HT1A receptors in transfected HeLa cells (HA7), 15 minutes at 37° C., pH 7.7
Experimental: The affinity of the compounds of the invention to 5-HT1A receptors was determined by measuring the inhibition of binding of a radioactive ligand at 5-HT1A receptors as described in the following test:
Inhibition of ^3H-5-CT Binding to Human 5-HT1A Receptors.
By this method, the inhibition by drugs of the binding of the 5-HT1A agonist ^3H-5-carboxamido tryptamine (3H-5-CT) to cloned human 5-HT1A receptors stably expressed in transfected HeLa cells (HA7) (Fargin, A. et al. J. Biol. Chem. 1989, 264, 14848) is determined in vitro. The assay was performed as a modification of the method described by Harrington, M. A. et al. J. Pharmacol. Exp. Ther. 1994, 268, 1098. Human 5-HT1A receptors (40 μg of cell homogenate) were incubated for 15 minutes at 37° C. in 50 mM Tris buffer at pH 7.7 in the presence of ^3H-5-CT. Non-specific binding was determined by including 10 μM of metergoline. The reaction was terminated by rapid filtration through Unifilter GF/B filters on a Tomtec Cell Harvester. Filters were counted in a Packard Top Counter.

SMILES: Cc1cc(C)c(C#N)c(SCCN2CCN(c3cccc4[nH]ccc34)CC2)n1 [Compound 1a, 2-{2-[4-(1H-Indol-4-yl)piperazin-1-yl]ethylsulfanyl}-4,6-dimethylnicotinonitrile]
- IC50 (cloned 5-HT1A receptors [1]): < 7000 nM
- IC50 [2]: < 20 nM

SMILES: Cc1ccc(C#N)c(SCCN2CCN(c3cccc4[nH]ccc34)CC2)n1 [Compound 1d, 2-{2-[4-(1H-Indol-4-yl)piperazin-1-yl]ethylsulfanyl}-6-methylnicotinonitrile]
- IC50 (cloned 5-HT1A receptors [3]): < 50 nM
- IC50 (cloned 5-HT1A receptors [1]): < 7000 nM
- IC50 [2]: < 20 nM

SMILES: Cc1cc(C)c(C#N)c(SCCCN2CCN(c3cccc4[nH]ccc34)CC2)n1 [Compound 1l, 2-{3-[4-(1H-Indol-4-yl)piperazin-1-yl]propylsulfanyl}-4,6-dimethylnicotinonitrile]
- IC50 (cloned 5-HT1A receptors [1]): < 7000 nM
- IC50 [2]: < 20 nM

SMILES: N#Cc1cccnc1SCCN1CCN(c2cccc3[nH]ccc23)CC1 [Compound 2b, 2-{2-[4-(1H-Indol-4-yl)piperazin-1-yl]ethylsulfanyl}nicotinonitrile]
- IC50 (cloned 5-HT1A receptors [3]): < 50 nM
- IC50 (cloned 5-HT1A receptors [1]): < 7000 nM
- IC50 [2]: < 20 nM

SMILES: N#Cc1c(C(F)(F)F)cc(C2CC2)nc1SCCN1CCN(c2cccc3[nH]ccc23)CC1 [Compound 2e, 2-{2-[4-(1H-Indol-4-yl)piperazin-1-yl]ethylsulfanyl}-4-trifluoromethyl-6-cyclopropylnicotinonitrile]
- IC50 (cloned 5-HT1A receptors [3]): < 50 nM
- IC50 (cloned 5-HT1A receptors [1]): < 7000 nM
- IC50 [2]: < 20 nM

SMILES: Cc1cc(C)nc(SCCN2CCN(c3cccc4[nH]ccc34)CC2)n1 [Compound 2o, 4,6-Dimethyl-2-{2-[4-(1H-indol-4-yl)piperazin-1-yl]ethylsulfanyl}pyrimidine]
- IC50 (cloned 5-HT1A receptors [3]): < 50 nM
- IC50 [2]: < 20 nM
